According to patent publication US20250326785A1, “SODIUM SALT AND ETHANOLAMINE SALT OF 23-HYDROXYTORMENTIC ACID” (HUYABIO International, LLC, priority 2024, published 2025):

Assays:
[1] = Single-dose IV and oral pharmacokinetic study in rabbits; type: in vivo, New Zealand White Rabbits; conditions: rabbit
Text: Eight groups (n=3) of rabbits received single doses of HBI-3802 or the sodium salt (form 5) HBI-3808 either by intravenous dosing or by oral dosing. HBI-3802 was formulated in 20% PG +80% (20% Captisol in pH 7.4 PBS buffer), and HBI-3808 was formulated in 5% NMP+15% EtOH+10% Tween 80+70% (20% Captisol in pH 7.4 PBS buffer). In addition, normal or enteric coated capsules were used to orally deliver the sodium salt (form 5) of HBI-3808. To allow determination of oral absolute bioavailability, both HBI-3802 and HBI-3808 were delivered IV at a dose of 0.3 mg/kg and blood samples obtained at 0, 0.25, 0.5, 0.75, 1,2,4,8,12,24,48, and 72 hours after dosing for derivation of plasma used to determine plasma concentrations by LC-MS. The HBI-3802 0.3 mg/kg plasma concentrations were compared to plasma concentrations obtained at the same time points from rabbits receiving single oral doses of […] at 1 or 5 mg/kg. The HBI-3808 0.3 mg/kg plasma concentrations were compared to plasma concentrations from groups of rabbits receiving oral gavage of 1 mg/kg HBI-3808 solution or 5 mg/kg HBI-3808 solution and from rabbits receiving 5 mg/kg of the sodium salt (form 5) of HBI-3808 in normal capsules or in enteric coated capsules.

[2] = test system: Adult rats (Sprague Dawley) with MI by LAD ligation; experiment: Rat myocardial infarction model: cardiac function by echocardiography; type: in vivo
Text: Animal Model and Myocardial Infarction: Adult rats (Sprague Dawley (SD), body weight, -250 g) were used to generate a model with MI by LAD ligation of the heart as described in the previous study (Chongyu Zhang, Meng-Hsuan Hsieh, Song-Yi Wu, Shu-Hong Li, Jun Wu, Shi-Ming Liu, Hao-Ji Wei, Richard D. Weisel, Hsing-Wen Sung, Ren-Ke Li, “A self-doping conductive polymer hydrogel that can restore electrical impulse propagation at myocardial infarct to prevent cardiac arrhythmia and preserve ventricular function,” Biomaterials, Volume 231, 2020, 119672, ISSN 0142-9612). In brief, each rat was pre-medicated with 5% isoflurane in a chamber.
The heart was then exposed through a left anterolateral thoracotomy incision. […] Sham animals was treated identically except that the suture was passed through the myocardium beneath the LAD without ligation. The incision was then closed in layers using 3-0 Vicryl suture and 3-0 silk for the skin. Post-surgery treatment followed per UHN ARC requirement with antibiotics (Duplocillin LA, 15,000 IU/kg, I.M.) and analgesics (Buprenorphrine, 0.03 mg/Kg, SC), and the animals recovered from anesthesia in a warmed environment, under continuous monitoring and care for 1-2 hours.
The selected rats having similar FS were randomly divided into 6 groups: (1) Negative control group (treated with 40% SBCD); (2) Positive control group (with HBI-3802, 2 mg/kg /day); (3) Dose 1 (HBI-3808 2 mg/kg/day); (4) Dose 2 (HBI-3808 0.64 mg/kg day); (5) Dose 3 (HBI-3808 0.2 mg/kg/day); and (6) Sham control (No myocardial infarction and treated with 40% SBCD).
Treatments: The rats were treated by gastric gavage daily starting 6 days after MI for 2 weeks (Turner PV, Vaughn E, Sunohara-Neilson J, Ovari J, Leri F, “Oral gavage in rats: animal welfare evaluation,” J. Am. Assoc. Lab. Anim. Sci., 2012 Jan; 51(1): pp. 25-30. PMID: 22330864; PMCID: PMC3276962) as described in Table 18. The same volume of vehicle (1 mL/rat/day) was given to the rats in sham control group. Ten rats were studied in each group (N=10/group). The schematic plan is depicted in FIG. 35.
Oral Treatment: Six days after permanent LAD ligation, the selected rats received the first daily treatment. HBI-3808 (at 1 of the 3 doses) or 3802 at 2 mg/kg/day (1 ml/rat/day) delivered by gastric gavage daily for 14 days (2). 40% SB-CD alone (1 ml/rat/day) was similarly administered to rats in the control and sham groups.
Measurement of Cardiac Function: Cardiac function was evaluated by echocardiography prior to LAD ligation, prior to treatment (6 days post myocardial infarction), and at 7- and 21-days post first treatment (13 and 27 days post myocardial infarction). The end-point cardiac function was also evaluated using a pressure-volume catheter on Day 21 after first treatment (27 days post myocardial infarction).
Echocardiography: Each rat was pre-medicated with isoflurane in a chamber, and anesthesia was maintained during measurement with 2.5% isoflurane delivered using a nose cone. Echocardiographic examinations were performed using a GE Vivid-7 System with a 10S transducer. Depth was set at 2 cm. Short-axis views were obtained using the parasternal approach.
Left ventricular (LV) dimensions [end-diastolic dimension (LVEDD) and end-systolic dimension (LVESD)] from M mode at short axis views of the mid-level LV. Fractional shortening (% FS) was calculated using the equation: [(LVEDD−LVESD)/LVEDD]×100. Ejection fraction (% EF) was calculated using the equation: [(LVEDD^3−LVESD^3)/LVEDD^3]×100.

[3] = PO 5 mg/kg in enteric coated capsules
[4] = 0.64 mg/kg/day, compared to 0.2 mg/kg HBI-3808, p<0.02
[5] = 2 mg/kg/day, 21 days after treatment, p<0.01

CC1CCC2(C(=O)[O-])CCC3(C)C(=CCC4C5(C)CC(O)C(O)C(C)(CO)C5CCC43C)C2C1(C)O.[Na+] (stereo not drawn) [HBI-3808 sodium salt of Pattern 5, sodium salt of 23-hydroxytormentic acid]
bioavailability ([1]; PO 1 mg/kg in 5% NMP+15% EtOH+10% tween 80+70% (20% Captisol in pH 7.4 PBS buffer)): 17.9% | bioavailability ([1]; PO 5 mg/kg in 5% NMP+15% EtOH+10% tween 80+70% (20% Captisol in pH 7.4 PBS buffer)): 27.7% | absorption onset delayed until [1, 3]: 8 h | bioavailability [1, 3]: 10.9% | bioavailability ([1]; PO 5 mg/kg in normal capsules): 10.7% | dose dependence of Cmax and AUC ([1]; PO 1 and 5 mg/kg solution): dose proportional increases with low variability

C[C@@H]1CC[C@]2(C(=O)O)CC[C@]3(C)C(=CCC4[C@@]5(C)C[C@@H](O)[C@H](O)[C@@](C)(CO)C5CC[C@]43C)C2[C@]1(C)O (stereo partly drawn) [HBI-3808, 23-hydroxytormentic acid]
difference of cardiac function (EF) Days 27 vs 6 post infarction ([2]; 0.16 mg of HBI-3808): showed improvement in cardiac function compared with Day 6 | difference of cardiac function (EF) Days 27 vs 6 post infarction ([2]; 0.2 mg/kg/day): prevented further deterioration of cardiac dysfunction | Left ventricular end systolic dimension (LVESD) ([2]; 0.2 mg/kg/day, vs control at 21 days after treatment, p<0.01): smaller LVESD compared with control group | Ejection fraction (EF) / cardiac function ([2]; 0.2 mg/kg/day, vs control over 21 days, p<0.01): better cardiac function than the control group | Fractional shortening (FS) / cardiac function ([2]; 0.2 mg/kg/day, vs control, p<0.01): better function compared with the control group | systolic dilation between Day 6 and Day 21 ([2]; 0.64 mg/kg/day): reversal in systolic dilation | Ejection fraction (EF) [2, 4]: improved EF | Fractional shortening (FS) / cardiac function [2, 4]: improved cardiac function | diastolic dilation between Day 6 and 21 ([2]; 2 mg/kg/day): no diastolic dilation | difference of cardiac function (EF) Days 27 vs 6 post infarction ([2]; 2 mg/kg/day): improvement in cardiac function compared with Day 6, which was significantly illustrated | efficacy compared with HBI-3802 ([2]; 2 mg/kg/day): greater efficacy compared with HBI-3802 | systolic dilation between Day 6 and Day 21 ([2]; 2 mg/kg/day): reversal in systolic dilation | Ejection fraction (EF) after treatment ([2]; 2 mg/kg/day gastric gavage 14 days from day 6 post MI, vs 0.64 and 0.2 mg/kg HBI-3808 and control): increased significantly | cardiac function (conclusion) ([2]; 2 mg/kg/day oral): improved both diastolic and systolic function | cardiac function (EF) compared with 2 mg/kg HBI-3802 group [2, 5]: improvement in cardiac function | cardiac function (FS) compared with 2 mg/kg HBI-3802 group [2, 5]: improvement in cardiac function | Left ventricular end systolic dimension (LVESD) ([2]; 2 mg/kg/day, vs 2 mg/kg HBI-3802, 0.64 and 0.2 mg/kg HBI-3808 and control, p<0.01): smaller | Left ventricular end diastolic dimension (LVEDD) ([2]; 2 mg/kg/day, vs 0.64, 0.2 mg/kg and control groups, p<0.01): smaller | Fractional shortening (FS) ([2]; 2 mg/kg/day, vs 0.64 and 0.2 mg/kg HBI-3808 and control): increased FS significantly | improvement of cardiac function (conclusion) ([2]; 0.64 or 0.2 mg/kg/day): lower-magnitude improvement of cardiac function | dose response of cardiac function restoration ([2]; 2, 0.64, 0.2 mg/kg/day): had a dose response
